Results on 57 compounds are retold here after the Kinase Knowledgebase extract (Sharma et al. 2016).

Chain of PIK3CD (Human) (O00329 whole entry, looked up): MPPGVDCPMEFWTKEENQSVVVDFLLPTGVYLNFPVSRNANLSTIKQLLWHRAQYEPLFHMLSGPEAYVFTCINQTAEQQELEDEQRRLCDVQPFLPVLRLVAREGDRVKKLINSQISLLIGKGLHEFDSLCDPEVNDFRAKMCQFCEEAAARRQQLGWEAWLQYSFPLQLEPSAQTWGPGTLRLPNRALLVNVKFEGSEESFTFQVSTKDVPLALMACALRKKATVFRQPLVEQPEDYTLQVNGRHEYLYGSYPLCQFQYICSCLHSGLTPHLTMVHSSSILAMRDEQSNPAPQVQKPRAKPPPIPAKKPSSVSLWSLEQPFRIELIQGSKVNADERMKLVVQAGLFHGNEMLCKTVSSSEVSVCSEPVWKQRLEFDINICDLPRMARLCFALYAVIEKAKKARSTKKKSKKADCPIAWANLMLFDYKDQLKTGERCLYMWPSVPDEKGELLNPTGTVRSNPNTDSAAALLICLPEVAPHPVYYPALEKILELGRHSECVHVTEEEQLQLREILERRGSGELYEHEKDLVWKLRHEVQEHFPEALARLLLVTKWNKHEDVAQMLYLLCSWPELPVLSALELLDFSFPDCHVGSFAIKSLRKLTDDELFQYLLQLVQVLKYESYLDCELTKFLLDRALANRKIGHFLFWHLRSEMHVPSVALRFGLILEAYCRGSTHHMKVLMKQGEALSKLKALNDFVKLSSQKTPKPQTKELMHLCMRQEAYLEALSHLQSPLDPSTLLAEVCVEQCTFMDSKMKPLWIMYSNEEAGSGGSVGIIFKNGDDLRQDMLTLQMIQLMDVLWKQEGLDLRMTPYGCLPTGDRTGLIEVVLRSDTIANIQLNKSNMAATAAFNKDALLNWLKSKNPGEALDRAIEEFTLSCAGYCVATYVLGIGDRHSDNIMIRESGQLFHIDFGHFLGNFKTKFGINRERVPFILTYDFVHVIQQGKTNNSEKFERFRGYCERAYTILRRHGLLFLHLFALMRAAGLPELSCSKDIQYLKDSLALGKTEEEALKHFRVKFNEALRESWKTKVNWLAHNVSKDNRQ

This assay has as its target PIK3CD (Human) (UniProt O00329). Nature of the assay: Assessment of PIK3CD Kinase Activity (Scintillation Proximity Assay).
For the compound `CNC(=O)c1ccc(-c2c(C)c(Cl)cc(C(C)n3nc(C)c4c(N)ncnc43)c2OC)cn1` (configuration not stated), the IC50 was ≤ 10 nM.
Consider `COc1c(C(C)n2nc(C)c3c(N)ncnc32)cc(Cl)c(C)c1C1CN(CC2CC2)C1` (configuration not stated), for which the half-maximal inhibitory concentration (IC50) was ≤ 10 nM.
In the case of `COc1c(C(C)n2cc(C)c3c(N)ncnc32)cc(Cl)c(C)c1-c1ccc(C(=O)N(C)C)nc1` (configuration not stated) it was ≤ 10 nM.
For `CCOc1c(C(C)n2nc(C)c3c(N)ncnc32)cc(Cl)c(C#N)c1C1CN(CCO)C1` (configuration not stated), the IC50 is ≤ 10 nM.
With `COc1c(C(C)n2nc(C)c3c(N)ncnc32)cc(Cl)c(C)c1C1CN(C(=O)c2cn[nH]c2)C1` (configuration not stated), the IC50 was ≤ 10 nM.
As for `CCOc1c(C(C)n2ccc(=O)c3c(N)ncnc32)cc(Cl)c(C#N)c1-c1ccc(C(=O)N(C)C)nc1` (configuration not stated), the IC50 was ≤ 10 nM.
For the compound `CCOc1c(C(C)n2nc(C)c3c(N)ncnc32)cc(Cl)c(F)c1C1CN(CC(N)=O)C1` (configuration not stated), the IC50 was ≤ 10 nM.
Turning to `COc1c(C(C)n2nc(C)c3c(N)ncnc32)cc(Cl)c(Cl)c1C1CN(C(C)C)C1` (configuration not stated), the IC50 is ≤ 10 nM.
In the case of `CCOc1c(C(C)n2nc(C)c3c(N)ncnc32)cc(Cl)c(C#N)c1C1CN(C[C@@H](C)O)C1` (some centres not stated), the IC50 is ≤ 10 nM.
Consider `COc1c(C(C)n2nc(C)c3c(N)ncnc32)cc(C)c(C#N)c1C1CN(C[C@H](C)O)C1` (some centres not stated), for which the IC50 was ≤ 10 nM.
The result for `COc1c(C(C)n2nc(C)c3c(N)ncnc32)cc(Cl)c(C)c1-c1cncnc1` (configuration not stated) reads ≤ 10 nM; that for `CCOc1c(C(C)n2nc(C(F)F)c3c(N)ncnc32)cc(Cl)c(C)c1-c1ccc(C(=O)N(C)C)nc1` (configuration not stated), ≤ 10 nM.
Turning to `COc1c(C(C)n2nc(C)c3c(N)ncnc32)cc(Cl)c(C)c1-c1cncc(C#N)c1` (configuration not stated), the IC50 was ≤ 10 nM.
`COc1c(C(C)n2nc(C)c3c(N)ncnc32)cc(Cl)c(C)c1C1CN(C(=O)C(C)(C)O)C1` (configuration not stated): the IC50 is ≤ 10 nM.
In the case of `COc1c(C(C)n2nc(C)c3c(N)ncnc32)cc(Cl)c(C#N)c1C1CN(C2CCC2)C1` (configuration not stated) it was ≤ 10 nM; in that of `CCOc1c(C(C)n2nc(C)c3c(N)ncnc32)cc(Cl)c(F)c1C1CN(CC(C)(C)O)C1` (configuration not stated), ≤ 10 nM.
For the compound `CCOc1c(C(C)n2nc(C)c3c(N)ncnc32)cc(Cl)c(C#N)c1C1CN(C(C)CO)C1` (configuration not stated), the IC50 is ≤ 10 nM.
In the case of `CCOc1c(C(C)n2nc(C)c3c(N)ncnc32)cc(Cl)c(C#N)c1C1CN(C(=O)C2CC2)C1` (configuration not stated) it was ≤ 10 nM; in that of `COc1c(C(C)n2nc(C)c3c(N)ncnc32)cc(Cl)c(C#N)c1C1CN(C(C)CO)C1` (configuration not stated), ≤ 10 nM; in that of `CCOc1c(C(C)n2nc(-c3cnn(CCO)c3)c3c(N)ncnc32)cc(Cl)c(C)c1-c1ccc(C(=O)N(C)C)nc1` (configuration not stated), ≤ 10 nM.
As to `CCOc1c(C(C)n2nc(C)c3c(N)ncnc32)cc(Cl)c(C#N)c1C1CN(CC2CC2)C1` (configuration not stated), the IC50 is ≤ 10 nM.
Regarding `COc1c(C(C)n2nc(C)c3c(N)ncnc32)cc(Cl)c(C#N)c1C1CN(C(C)C)C1` (configuration not stated), the IC50 is ≤ 10 nM.
Regarding `COc1c(C(C)n2nc(C)c3c(N)ncnc32)cc(Cl)c(C)c1C1CN(CC(F)F)C1` (configuration not stated), the IC50 was ≤ 10 nM.
For `COc1c(C(C)n2nc(C)c3c(N)ncnc32)cc(Cl)c(C)c1C1CN(CC#N)C1` (configuration not stated), the IC50 is ≤ 10 nM.
Turning to `CCOc1c(C(C)n2nc(C)c3c(N)ncnc32)cc(Cl)c(C)c1-c1cnn(CC(N)=O)c1` (configuration not stated), the IC50 is ≤ 10 nM.
In the case of `COc1c(C(C)n2nc(C)c3c(N)ncnc32)cc(Cl)c(F)c1C1CN(C[C@H](C)O)C1` (some centres not stated) it was ≤ 10 nM.
As for `CCOc1c(C(C)n2nc(C)c3c(N)ncnc32)cc(Cl)c(C#N)c1-c1cncc(C(=O)NC)c1` (configuration not stated), the IC50 was ≤ 10 nM.
The result for `COc1c(C(C)n2nc(C)c3c(N)ncnc32)cc(Cl)c(C)c1C1CN(C[C@@H](C)O)C1` (some centres not stated) reads ≤ 10 nM.
Regarding `COc1c(C(C)n2nc(C)c3c(N)ncnc32)cc(Cl)c(C)c1C1CN(CCO)C1` (configuration not stated), the IC50 was ≤ 10 nM.
In the case of `CCNC(=O)c1c(C)c(Cl)cc(C(C)n2nc(-c3cnc4[nH]ccc4c3)c3c(N)ncnc32)c1OCC` (configuration not stated) it was ≤ 10 nM; in that of `CCOc1c(C(C)n2nc(C)c3c(N)ncnc32)cc(Cl)c(C)c1-c1ccc(C(=O)NC)nc1` (configuration not stated), ≤ 10 nM.
In the case of `COc1c(C(C)n2nc(C)c3c(N)ncnc32)cc(Cl)c(C#N)c1C1CN(C(N)=O)C1` (configuration not stated) it was ≤ 10 nM; in that of `COc1c(C(C)n2nc(C(F)F)c3c(N)ncnc32)cc(C#N)c(C)c1C1CN(CC(F)F)C1` (configuration not stated), ≤ 10 nM; in that of `CCOc1c(C(C)n2nc(C)c3c(N)ncnc32)cc(Cl)c(C#N)c1C1CN(C(C)(C)C(=O)N(C)C)C1` (configuration not stated), ≤ 10 nM.
In the case of `CCOc1c(C(C)n2nc(-c3ccc(C(=O)NC)nc3)c3c(N)ncnc32)cc(Cl)c(C)c1-c1ccc(C(=O)N(C)C)nc1` (configuration not stated) it was ≤ 10 nM; in that of `COc1c(C(C)n2nc(C)c3c(N)nccc32)cc(Cl)c(C)c1-c1ccc(C(=O)N(C)C)nc1` (configuration not stated), 50 to 200 nM; in that of `CCOc1c(C(C)n2nc(C#C[C@H](C)O)c3c(N)ncnc32)cc(Cl)c(C)c1-c1ccc(C(=O)N(C)C)nc1` (some centres not stated), ≤ 10 nM.
`CNC(=O)c1cc(-c2c(C)c(Cl)cc(C(C)n3nc(C)c4c(N)ncnc43)c2OC)ccn1` (configuration not stated): the IC50 is ≤ 10 nM.
On to `COc1c(C(C)n2nc(C)c3c(N)ncnc32)cc(Cl)c(C#N)c1C1CN(CC2CC2)C1` (configuration not stated), for which the IC50 is ≤ 10 nM.
Regarding `COc1c(C(C)n2nc(C)c3c(N)ncnc32)cc(Cl)c(C#N)c1C1CN(C)C1` (configuration not stated), the IC50 was ≤ 10 nM.
`COc1c(C(C)n2nc(C)c3c(N)ncnc32)cc(Cl)c(C#N)c1C1CN(C(C)=O)C1` (configuration not stated): the IC50 was ≤ 10 nM.
For the compound `CCOc1c(C(C)n2nc(C)c3c(N)ncnc32)cc(C)c(C#N)c1C1CN(C(C)C)C1` (configuration not stated), the IC50 was ≤ 10 nM.
With `COc1c(C(C)n2ccc(=O)c3c(N)ncnc32)cc(Cl)c(C)c1-c1cncnc1` (configuration not stated), the IC50 was ≤ 10 nM.
In the case of `CCOc1c(C(C)n2nc(C3CC3)c3c(N)ncnc32)cc(Cl)c(C)c1-c1ccc(C(=O)N(C)C)nc1` (configuration not stated) it was ≤ 10 nM; in that of `CCOc1c(C(C)n2nc(C)c3c(N)ncnc32)cc(Cl)c(C)c1-c1ccc(C(=O)N(C)C)nc1` (configuration not stated), ≤ 10 nM.
The result for `CCNC(=O)c1c(C)c(Cl)cc(C(C)n2nc(-c3cn[nH]c3)c3c(N)ncnc32)c1OCC` (configuration not stated) reads ≤ 10 nM.
In the case of `CCOc1c(C(C)n2nc(-c3cnc(N)nc3)c3c(N)ncnc32)cc(Cl)c(C)c1-c1ccc(C(=O)N(C)C)nc1` (configuration not stated) it was ≤ 10 nM; in that of `CCC(C)N1CC(c2c(C)c(Cl)cc(C(C)n3nc(C)c4c(N)ncnc43)c2OC)C1` (configuration not stated), ≤ 10 nM; in that of `COc1c(C(C)n2nc(C)c3c(N)ncnc32)cc(Cl)c(C)c1-c1ccnc(C(=O)N(C)CCO)c1` (configuration not stated), ≤ 10 nM.
As to `COc1c(C(C)n2nc(C)c3c(N)ncnc32)cc(Cl)c(C)c1C1CCN(CC(C)(C)O)CC1` (configuration not stated), the IC50 was ≤ 10 nM.
In the case of `COc1c(C(C)n2nc(C)c3c(N)ncnc32)cc(Cl)c(C)c1-c1cncc(C(=O)N(C)C)c1` (configuration not stated) it was ≤ 10 nM.
The result for `CCOc1c(C(C)n2cc(C)c3c(N)ncnc32)cc(Cl)c(C#N)c1C1CN(CCO)C1` (configuration not stated) reads ≤ 10 nM; that for `COc1c(C(C)n2nc(C(F)F)c3c(N)ncnc32)cc(C#N)c(C)c1C1CN(C[C@H](C)O)C1` (some centres not stated), ≤ 10 nM.
In the case of `COc1c(C(C)n2nc(C(F)F)c3c(N)ncnc32)cc(C#N)c(C)c1C1CN(CC(F)(F)F)C1` (configuration not stated) it was ≤ 10 nM; in that of `COc1c([C@H](C)n2nc(C)c3c(N)ncnc32)cc(Cl)c(C#N)c1C1CN(C[C@@H](C)O)C1`, ≤ 10 nM; in that of `COc1c(C(C)n2nc(C)c3c(N)ncnc32)cc(Cl)c(Cl)c1C1CN(C(C)=O)C1` (configuration not stated), ≤ 10 nM.
On to `CCOc1c(C(C)n2nc(C)c3c(N)ncnc32)cc(Cl)c(F)c1C1CN(C[C@@H](C)O)C1` (some centres not stated), for which the IC50 was ≤ 10 nM.
